Measured values taken from PubChem BioAssay (NCI).
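At the GI50, growth is halved. TGI: concentration producing complete growth inhibition.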

Legend:
Assay in all cases: NCI-60 cell line screen, 384-well format
SK-MEL-5 melanoma = test system: SK-MEL-5 melanoma
HOP-92 NSCLC = test system: HOP-92 NSCLC
CCRF-CEM leukemia = test system: CCRF-CEM leukemia
UACC-257 melanoma = test system: UACC-257 melanoma
HT29 colon = test system: HT29 colon
SF-268 CNS = test system: SF-268 CNS
HOP-62 NSCLC = test system: HOP-62 NSCLC
OVCAR-5 ovarian = test system: OVCAR-5 ovarian
NCI/ADR-RES ovarian = test system: NCI/ADR-RES ovarian
PC-3 prostate = test system: PC-3 prostate
OVCAR-4 ovarian = test system: OVCAR-4 ovarian
HS 578T breast = test system: HS 578T breast
ACHN renal = test system: ACHN renal
SK-OV-3 ovarian = test system: SK-OV-3 ovarian
NCI-H460 NSCLC = test system: NCI-H460 NSCLC
HCT-15 colon = test system: HCT-15 colon
SR leukemia = test system: SR leukemia
RXF 393 renal = test system: RXF 393 renal
MCF7 breast = test system: MCF7 breast
MDA-MB-231 breast = test system: MDA-MB-231 breast
MOLT-4 leukemia = test system: MOLT-4 leukemia
COLO 205 colon = test system: COLO 205 colon
MALME-3M melanoma = test system: MALME-3M melanoma
SK-MEL-28 melanoma = test system: SK-MEL-28 melanoma
SF-539 CNS = test system: SF-539 CNS
786-0 renal = test system: 786-0 renal
EKVX NSCLC = test system: EKVX NSCLC
SW-620 colon = test system: SW-620 colon
MDA-MB-435 melanoma = test system: MDA-MB-435 melanoma
NCI-H23 lung = test system: NCI-H23 lung
BT-549 breast = test system: BT-549 breast
A549 NSCLC = test system: A549 NSCLC
TK-10 renal = test system: TK-10 renal
SNB-19 CNS = test system: SNB-19 CNS
KM12 colon = test system: KM12 colon
UACC-62 melanoma = test system: UACC-62 melanoma
T-47D breast = test system: T-47D breast
DU-145 prostate = test system: DU-145 prostate
OVCAR-3 ovarian = test system: OVCAR-3 ovarian
SF-295 CNS = test system: SF-295 CNS
IGROV1 ovarian = test system: IGROV1 ovarian
HCC-2998 colon = test system: HCC-2998 colon
A498 renal = test system: A498 renal
M14 melanoma = test system: M14 melanoma
NCI-H226 lung = test system: NCI-H226 lung
SNB-75 CNS = test system: SNB-75 CNS
CAKI-1 renal = test system: CAKI-1 renal
NCI-H522 lung = test system: NCI-H522 lung
U251 glioblastoma = test system: U251 glioblastoma
MDA-MB-468 breast = test system: MDA-MB-468 breast
SN12C renal = test system: SN12C renal
OVCAR-8 ovarian = test system: OVCAR-8 ovarian
LOX IMVI melanoma = test system: LOX IMVI melanoma
NCI-H322M lung = test system: NCI-H322M lung
K-562 leukemia = test system: K-562 leukemia

For `Nc1ncc(-c2cnn(CCO)c2)c2scc(-c3ccc(NC(=O)Nc4cccc(F)c4)cc3)c12`, the GI50 (SK-MEL-5 melanoma) was 807 nM, the TGI (SK-MEL-5 melanoma) was 2070 nM and the GI50 (HOP-92 NSCLC) was 238 nM. It also gave a TGI (HOP-92 NSCLC) of 1100 nM, a GI50 (CCRF-CEM leukemia) of under 10 nM and a TGI (CCRF-CEM leukemia) of under 10 nM. For the same molecule, the GI50 (UACC-257 melanoma) was 311 nM, the TGI (UACC-257 melanoma) was 1390 nM and the GI50 (HT29 colon) was 507 nM. It also gave a TGI (HT29 colon) of 2640 nM, a GI50 (SF-268 CNS) of 354 nM and a TGI (SF-268 CNS) of 1920 nM. It also gave a GI50 (HOP-62 NSCLC) of 309 nM, a TGI (HOP-62 NSCLC) of 1810 nM and a GI50 (OVCAR-5 ovarian) of 612 nM. It also gave a TGI (OVCAR-5 ovarian) of 2200 nM, a GI50 (NCI/ADR-RES ovarian) of 363 nM and a TGI (NCI/ADR-RES ovarian) of 10000 nM. It also gave a GI50 (PC-3 prostate) of 1270 nM, a TGI (PC-3 prostate) of 3730 nM and a GI50 (OVCAR-4 ovarian) of 674 nM. The TGI (OVCAR-4 ovarian) was 2380 nM, the GI50 (HS 578T breast) was 226 nM and the TGI (HS 578T breast) was 943 nM. For the same molecule, the GI50 (ACHN renal) was 352 nM, the TGI (ACHN renal) was 1770 nM and the GI50 (SK-OV-3 ovarian) was 297 nM. The TGI (SK-OV-3 ovarian) was 1300 nM, the GI50 (NCI-H460 NSCLC) was under 10 nM and the TGI (NCI-H460 NSCLC) was 1060 nM. The GI50 (HCT-15 colon) was 349 nM, the TGI (HCT-15 colon) was 1720 nM and the GI50 (SR leukemia) was under 10 nM. The TGI (SR leukemia) was under 10 nM, the GI50 (RXF 393 renal) was 275 nM and the TGI (RXF 393 renal) was 1460 nM. For the same molecule, the GI50 (MCF7 breast) was 318 nM, the TGI (MCF7 breast) was 1830 nM and the GI50 (MDA-MB-231 breast) was 1010 nM. For the same molecule, the TGI (MDA-MB-231 breast) was 3190 nM, the GI50 (MOLT-4 leukemia) was under 10 nM and the TGI (MOLT-4 leukemia) was under 10 nM. For the same molecule, the GI50 (COLO 205 colon) was under 10 nM, the TGI (COLO 205 colon) was 241 nM and the GI50 (MALME-3M melanoma) was 53.5 nM. The TGI (MALME-3M melanoma) was 646 nM, the GI50 (SK-MEL-28 melanoma) was 402 nM and the TGI (SK-MEL-28 melanoma) was 1720 nM. It also gave a GI50 (SF-539 CNS) of 169 nM, a TGI (SF-539 CNS) of 1110 nM and a GI50 ([…]-0 renal) of 373 nM. The TGI (786-0 renal) was 1740 nM, the GI50 (EKVX NSCLC) was 1030 nM and the TGI (EKVX NSCLC) was 2980 nM. It also gave a GI50 (SW-620 colon) of 242 nM, a TGI (SW-620 colon) of 1130 nM and a GI50 (MDA-MB-435 melanoma) of 317 nM. For the same molecule, the TGI (MDA-MB-435 melanoma) was 1890 nM, the GI50 (NCI-H23 lung) was 178 nM and the TGI (NCI-H23 lung) was 603 nM. For the same molecule, the GI50 (BT-549 breast) was 323 nM, the TGI (BT-549 breast) was 1280 nM and the GI50 (A549 NSCLC) was 263 nM. It also gave a TGI (A549 NSCLC) of 3770 nM, a GI50 (TK-10 renal) of 920 nM and a TGI (TK-10 renal) of 3620 nM. The GI50 (SNB-19 CNS) was 836 nM, the TGI (SNB-19 CNS) was 2550 nM and the GI50 (KM12 colon) was under 10 nM. The TGI (KM12 colon) was 1210 nM, the GI50 (UACC-62 melanoma) was 376 nM and the TGI (UACC-62 melanoma) was 1640 nM. It also gave a GI50 (T-47D breast) of 1450 nM, a TGI (T-47D breast) of 3310 nM and a GI50 (DU-145 prostate) of 462 nM. For the same molecule, the TGI (DU-145 prostate) was 2380 nM, the GI50 (OVCAR-3 ovarian) was 188 nM and the TGI (OVCAR-3 ovarian) was 2010 nM. The GI50 (SF-295 CNS) was 186 nM, the TGI (SF-295 CNS) was 1370 nM and the GI50 (IGROV1 ovarian) was 385 nM. It also gave a TGI (IGROV1 ovarian) of 2550 nM, a GI50 (HCC-2998 colon) of 1160 nM and a TGI (HCC-2998 colon) of 2550 nM. The GI50 (A498 renal) was 312 nM, the TGI (A498 renal) was 1720 nM and the GI50 (M14 melanoma) was 147 nM. The TGI (M14 melanoma) was 1140 nM, the GI50 (NCI-H226 lung) was 238 nM and the TGI (NCI-H226 lung) was 2090 nM. The GI50 (SNB-75 CNS) was 172 nM, the TGI (SNB-75 CNS) was 740 nM and the GI50 (CAKI-1 renal) was 212 nM. The TGI (CAKI-1 renal) was 1200 nM, the GI50 (NCI-H522 lung) was 220 nM and the TGI (NCI-H522 lung) was 928 nM. The GI50 (U251 glioblastoma) was 812 nM, the TGI (U251 glioblastoma) was 2170 nM and the GI50 (MDA-MB-468 breast) was 18.8 nM. The TGI (MDA-MB-468 breast) was 74.9 nM, the GI50 (SN12C renal) was 179 nM and the TGI (SN12C renal) was 555 nM. It also gave a GI50 (OVCAR-8 ovarian) of 315 nM, a TGI (OVCAR-8 ovarian) of 2130 nM and a GI50 (LOX IMVI melanoma) of 318 nM. For the same molecule, the TGI (LOX IMVI melanoma) was 1320 nM, the GI50 (NCI-H322M lung) was 634 nM and the TGI (NCI-H322M lung) was 2890 nM. For the same molecule, the GI50 (K-562 leukemia) was 16.7 nM and the TGI (K-562 leukemia) was 42.9 nM.
